Columns and labels:
rats [1] = experiment: Acute toxicology, single IV dose in rats; assay type: in vivo; settings: 5-FU 140 mg/kg, galactomannan 72 mg/kg, combination 140/72 mg/kg, n=5/sex/group
Method: (§1) Acute toxicology studies of the galactomannan of the present invention were performed in mice, rats and dogs and subchronic toxicology studies were performed in rats and dogs. The following is a summary of the findings of these studies:
In rats (n=5/sex/group), single IV doses of 140 mg/kg (840 mg/m2) 5-FU, 72 mg/kg (432 mg/m2) galactomannan or 140/72 mg/kg of the combination produced no deaths in any of the groups.
Toxic changes in body weight, feed consumption, and hematology were less severe in the rats injected with the combination, versus those injected with 5-FU alone.

dogs = experiment: Acute toxicology, single IV injection in dogs; assay type: in vivo; settings: 5-FU 28.5 mg/kg, galactomannan 15 mg/kg, combination 28.5/15 mg/kg
Method: as §1
The surviving dogs remained clinically normal and had no treatment-related changes in body weight, feed consumption, ECG tracings, clinical pathology or gross tissue changes during the 21-day study period.

[2] = test system: human colon tumor COLO 205; experiment: Efficacy study in COLO 205 human colon tumor xenografts, q4d×3 (Example 3); settings: 5-FU 75 mg/kg/dose
Method: The both studies were conducted as follows.
5-FU alone was administered i.v. on the same q4d×3 treatment schedule at doses of 75 mg/kg/dose (225 mg/m2/dose). 5-FU was formulated in saline fresh on each day of treatment at a concentration of 3.75 mg/mL, at pH 9.2. […] Both individual compounds and their mixture were administered according to exact body weight with injection volume being 0.2 mL/10 g body weight.
There were a total of four groups of 10 animals each, s.c.-implanted with COLO 205 human colon tumor xenografts.

[3] = test system: COLO 205 human colon tumor xenografts; experiment: Efficacy and compatibility with leucovorin in COLO 205 human colon tumor xenografts, q4d×4 (Example 4); settings: GM 120 mg/kg/dose
Method: The principal differences with the study described in Example 3 were that (a) the galactomannan was from another source, of a different size (molecular weight) and with a different Man/Gal ratio, (b) there were four consecutive injections, not three, (c) there were four doses of the galactomannan tested, not one, (d) 5-FU was administered (i.v.) in 48 mg/kg/dose, not 75 mg/kg/dose, as in the first study, and (e) galactomannan (i.v. injection) was compared with leucovorin (oral gavage, administered two hours after 5-FU) in terms of efficacy and toxicity. […] 5-FU alone was administered i.v. on the same q4d×4 treatment schedule at dosages of 48 mg/kg/dose. 5-FU was formulated in saline fresh on each day of treatment at a concentration of 4.8 mg/mL, at pH 9.2. […] Leucovorin powder (clinical formulation, Leucovorin calcium for injection) was reconstituted with water for injection to yield a concentration of 10 mg/mL. On each day of treatment the stock solution was diluted with water for injection to yield a concentration of 2.5 mg/mL.
Two more combination-treatment groups were also included in the study. One group of mice was treated with 5-FU (48 mg/kg/dose, i.v., q4d×4), followed by oral gavage (p.o.) with leucovorin, administered two hours after 5-FU at a dosage of 25 mg/kg/dose. Another two groups of mice were treated with 5-FU in a combination with the galactomannan (48 mg/kg/dose and 120 mg/kg/dose, respectively, i.v., q4d×4), followed by p.o. leucovorin treatment, administered at a dosage of 25 mg/kg/dose two hours after 5-FU plus the galactomannan.
There were a total of nine groups of 10 animals each, s.c.-implanted with COLO 205 human colon tumor xenografts.

[4] = test system: advanced colorectal cancer; settings: cited from earlier work
rats [5] = experiment: 28-day subchronic rat study (Example 7); assay type: in vivo; settings: 48 mg/kg 5-FU, daily IV for four consecutive days
Method: In the 28-day subchronic rat study performed with research grade unfiltered galactomannan, single daily IV doses of 10 mL/kg saline, 48 mg/kg (288 mg/m2) 5-FU, 48 mg/kg (288 mg/m2) galactomannan or 24/13 mg/kg (144/78 mg/m2), 36/19 mg/kg (216/114 mg/m2) or 48/25 mg/kg (288/150 mg/m2) of the 5-FU/galactomannan combination were given at a rate of 1 mL/min for four consecutive days. The four doses of 5-FU produced mortality (7/8 with 48 mg/kg 5-FU; 1/8, 2/8 and 7/8 with 24/13, 36/19 and 48/25 mg/kg 5-FU/galactomannan, respectively).
Lesions in unscheduled-death animals were primarily due to the expected action of 5-FU on the hematopoietic and lymphoid systems, with secondary bacterial invasion and disseminated hemorrhage due to effects on coagulation. At the study day 5 necropsy, lesions included pronounced hypocellularity of the bone marrow, lymphoid atrophy of the thymus and atrophy of villi in the various segments of the small intestine (all considered due to the expected action of 5-FU). With the exception of the mild granulomatous foci in the lungs, treatment-related histopathological lesions were resolved in animals sacrificed at study day 29 (only one female survived in Group 2 and Group 6).

mice = experiment: Acute toxicology, single IV dose in mice; assay type: in vivo; settings: single IV dose 409 mg/kg (1227 mg/m2) 5-FU
Method: Acute toxicology studies of the galactomannan of the present invention were performed in mice, rats and dogs and subchronic toxicology studies were performed in rats and dogs. The following is a summary of the findings of these studies: […]

beagle dogs = experiment: 28-day canine study (Example 9); assay type: in vivo; settings: 6 mg/kg (120 mg/m2) 5-FU, daily IV for four consecutive days
Method: In a 28-day canine study, single daily IV doses of saline, 6 mg/kg (120 mg/m2) 5-FU and ([…] (240 mg/m2) galactomannan or 4/2 mg/kg (80/40 mg/m2), 6/3.2 mg/kg (120/64 mg/m2) or 6/6 mg/kg (120/120 mg/m2) 5-FU/galactomannan were injected for four consecutive days to six groups of beagle dogs Mortality occurred in 13 of 48 dogs (five moribund sacrifices and eight found dead) between Study Days 2 and 5 (4/4 males on 5-FU; 3/4 males in the 4/2 mg/kg 5-FU/galactomannan group; 2/4 males and 1/4 females in the 6/3.2 and 6/6 mg/kg 5-FU/galactomannan groups, respectively).
Adverse effects in 5-FU groups included ataxia, prostration, vocalization, convulsions, tremors, hypersensitivity to touch, aggressive behavior (resulting in only three doses being given to the 6/3.2 5-FU/galactomanna group), emesis, salivation, soft stools and decreased red cell parameters and platelet counts. […] At the day 5 necropsy, treatment-related histological changes were largely limited to the 5-FU females. At day 29 necropsy, there were no remarkable changes in the survivors.

[6] = q4d×4, 5-FU 48 mg/kg/dose i.v., leucovorin oral 25 mg/kg/dose

Row | Compound | deaths (rats [1]) | death (dogs) | mean survival time ([2]; i.v. q4d×3, GM 120 mg/kg/dose) | median to quadrupling of tumor volume ([2]; i.v. q4d×3, GM 120 mg/kg/dose) | median tumor volume after 56 days of the study ([2]; i.v. q4d×3, GM 120 mg/kg/dose) | tumor regression after 56 days of the study ([2]; i.v. q4d×3, GM 120 mg/kg/dose) | treatment-related deaths ([2]; i.v. q4d×3, GM 120 mg/kg/dose, 10 mice per group, within two weeks) | time required to quadruple tumor weight ([2]; intravenous, galactomannan 120 mg/kg/day (360 mg/m2)) | median to quadrupling of tumor volume ([3]; i.v. q4d×4, 5-FU 48 mg/kg/dose) | median tumor volume after 13 days ([3]; i.v. q4d×4, 5-FU 48 mg/kg/dose) | median days to quadrupling of tumor weight [3, 6] | tumor weight at Day 13 from treatment initiation, mean [3, 6] | tumor weight at Day 13 from treatment initiation, median [3, 6] | patients with hand-foot syndrome ([4]; continuous infusion regimens) | mortality (rats [5]) | death (mice) | time of death (mice) | mortality between Study Days 2 and 5 (beagle dogs) | single agent response rate ([4]; previously treated colorectal cancer patients)
1 | O=c1[nH]cc(F)c(=O)[nH]1 [5-FU, 5-fluorouracil, reference compound] | no deaths | 2/2 | 23.7 days | 23.7 days | 2254 mm3 | no tumor regression | three of ten | 23.5 days | 8.7 days | 800 mm3 | 8.7 days | 734 mg | 800 mg | approximately 20% | 7/8 | 3/5 | 13 to 16 days | 4/4 | –
2 | O=C1[O][Pt]2([NH][C@@H]3CCCC[C@H]3[NH]2)[O]C1=O [Oxaliplatin] | – | – | – | – | – | – | – | – | – | – | – | – | – | – | – | – | – | – | 10%

Reference: patent US7893252B2, “Selectively depolymerized galactomannan polysaccharide” (priority 2003, dated 2011)
